Source: the supplement of paper PMC10307832

What was measured:
Assay in all cases: relative viability (nuclei count vs DMSO), 5 days (fraction); higher = more cells survive
NCI-H1793 = tested on: NCI-H1793
How it was run: (§1)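 Medians of duplicate plates are given as relative viability. That measure is the nuclei count in treated wells divided by the count in vehicle wells. Counts were taken on 4× images of lung cancer cell lines in 1536-well plates, 5 days after pin-tool dosing the day after seeding with one drug alone or a fixed anchor-drug dose plus five library-drug doses (not always all listed) in √10 steps.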

SK-LU-1 = tested on: SK-LU-1
How it was run: as §1

NCI-H460 = tested on: NCI-H460
How it was run: as §1

CAL-12T = tested on: CAL-12T
How it was run: as §1

NCI-H2085 = tested on: NCI-H2085
How it was run: as §1

LOU-NH91 = tested on: LOU-NH91
How it was run: as §1

NCI-H838 = tested on: NCI-H838
How it was run: as §1

NCI-H1437 = tested on: NCI-H1437
How it was run: as §1

NCI-H1651 = tested on: NCI-H1651
How it was run: as §1

LU99A = tested on: LU99A
How it was run: as §1

NCI-H2023 = tested on: NCI-H2023
How it was run: as §1

BEN = tested on: BEN
How it was run: as §1

NCI-H1975 = tested on: NCI-H1975
How it was run: as §1

NCI-H1650 = tested on: NCI-H1650
How it was run: as §1

NCI-H1734 = tested on: NCI-H1734
How it was run: as §1

NCI-H1355 = tested on: NCI-H1355
How it was run: as §1

HCC-366 = tested on: HCC-366
How it was run: as §1

COR-L23 = tested on: COR-L23
How it was run: as §1

NCI-H441 = tested on: NCI-H441
How it was run: as §1

O=c1cc(N2CCOCC2)oc2c(-c3cccc4c3sc3ccccc34)cccc12 + CC1(C)CCC(c2ccc(Cl)cc2)=C(CN2CCN(c3ccc(C(=O)NS(=O)(=O)c4ccc(N[C@H](CCN5CCOCC5)CSc5ccccc5)c(S(=O)(=O)C(F)(F)F)c4)cc3)CC2)C1 [Navitoclax] (partner 0.5 µM) gave a relative viability (NCI-H1793; first compound 0.01 µM) of 0.471, a relative viability (NCI-H1793; first compound 0.03162 µM) of 0.468 and a relative viability (NCI-H1793; first compound 0.1 µM) of 0.54. For the same molecule, the relative viability (NCI-H1793; first compound 0.3162 µM) was 0.367, the relative viability (NCI-H1793; first compound 1 µM) was 0.382 and the relative viability (SK-LU-1; first compound 0.03162 µM) was 0.954. For the same molecule, the relative viability (SK-LU-1; first compound 0.1 µM) was 1.1, the relative viability (SK-LU-1; first compound 0.3162 µM) was 1.18 and the relative viability (SK-LU-1; first compound 1 µM) was 0.77. For the same molecule, the relative viability (NCI-H460; first compound 0.01 µM) was 1.06, the relative viability (NCI-H460; first compound 0.03162 µM) was 1.07 and the relative viability (NCI-H460; first compound 0.1 µM) was 1.28. It also gave a relative viability (NCI-H460; first compound 0.3162 µM) of 1.04, a relative viability (NCI-H460; first compound 1 µM) of 1.12 and a relative viability (CAL-12T; first compound 0.01 µM) of 1.47. For the same molecule, the relative viability (CAL-12T; first compound 0.03162 µM) was 1.17, the relative viability (CAL-12T; first compound 0.1 µM) was 1.36 and the relative viability (CAL-12T; first compound 0.3162 µM) was 1.45. It also gave a relative viability (CAL-12T; first compound 1 µM) of 1.16, a relative viability (NCI-H2085; first compound 0.01 µM) of 1.08 and a relative viability (NCI-H2085; first compound 0.03162 µM) of 1.19. The relative viability (NCI-H2085; first compound 0.1 µM) was 1.17, the relative viability (NCI-H2085; first compound 0.3162 µM) was 1.08 and the relative viability (NCI-H2085; first compound 1 µM) was 1.02. For the same molecule, the relative viability (LOU-NH91; first compound 0.01 µM) was 0.637, the relative viability (LOU-NH91; first compound 0.03162 µM) was 0.631 and the relative viability (LOU-NH91; first compound 0.1 µM) was 0.695. It also gave a relative viability (LOU-NH91; first compound 0.3162 µM) of 0.747, a relative viability (LOU-NH91; first compound 1 µM) of 0.689 and a relative viability (NCI-H838; first compound 0.01 µM) of 1.17. It also gave a relative viability (NCI-H838; first compound 0.03162 µM) of 1.13, a relative viability (NCI-H838; first compound 0.1 µM) of 1.13 and a relative viability (NCI-H838; first compound 0.3162 µM) of 1.1. For the same molecule, the relative viability (NCI-H838; first compound 1 µM) was 1.1, the relative viability (NCI-H1437; first compound 0.01 µM) was 1.05 and the relative viability (NCI-H1437; first compound 0.03162 µM) was 1.13. The relative viability (NCI-H1437; first compound 0.1 µM) was 1.16, the relative viability (NCI-H1437; first compound 0.3162 µM) was 1.05 and the relative viability (NCI-H1437; first compound 1 µM) was 1.05. For the same molecule, the relative viability (NCI-H1651; first compound 0.01 µM) was 1.07, the relative viability (NCI-H1651; first compound 0.03162 µM) was 0.997 and the relative viability (NCI-H1651; first compound 0.1 µM) was 1.01. The relative viability (NCI-H1651; first compound 0.3162 µM) was 0.991, the relative viability (NCI-H1651; first compound 1 µM) was 0.927 and the relative viability (LU99A; first compound 0.01 µM) was 0.887. It also gave a relative viability (LU99A; first compound 0.03162 µM) of 0.955, a relative viability (LU99A; first compound 0.1 µM) of 0.884 and a relative viability (LU99A; first compound 0.3162 µM) of 0.773. It also gave a relative viability (LU99A; first compound 1 µM) of 0.898, a relative viability (NCI-H2023; first compound 0.01 µM) of 1.07 and a relative viability (NCI-H2023; first compound 0.03162 µM) of 0.912. It also gave a relative viability (NCI-H2023; first compound 0.1 µM) of 1, a relative viability (NCI-H2023; first compound 0.3162 µM) of 0.99 and a relative viability (NCI-H2023; first compound 1 µM) of 1.01. For the same molecule, the relative viability (BEN; first compound 0.01 µM) was 0.155, the relative viability (BEN; first compound 0.03162 µM) was 0.0681 and the relative viability (BEN; first compound 0.1 µM) was 0.0673. It also gave a relative viability (BEN; first compound 0.3162 µM) of 0.0807, a relative viability (BEN; first compound 1 µM) of 0.0563 and a relative viability (NCI-H1975; first compound 0.01 µM) of 1.02. For the same molecule, the relative viability (NCI-H1975; first compound 0.03162 µM) was 1.13, the relative viability (NCI-H1975; first compound 0.1 µM) was 1.1 and the relative viability (NCI-H1975; first compound 0.3162 µM) was 0.985. The relative viability (NCI-H1975; first compound 1 µM) was 0.994, the relative viability (NCI-H1650; first compound 0.03162 µM) was 1.07 and the relative viability (NCI-H1650; first compound 0.1 µM) was 1.07. The relative viability (NCI-H1650; first compound 0.3162 µM) was 1.47, the relative viability (NCI-H1650; first compound 1 µM) was 1.07 and the relative viability (NCI-H1734; first compound 0.01 µM) was 0.921. For the same molecule, the relative viability (NCI-H1734; first compound 0.03162 µM) was 0.807, the relative viability (NCI-H1734; first compound 0.1 µM) was 0.835 and the relative viability (NCI-H1734; first compound 0.3162 µM) was 0.708. It also gave a relative viability (NCI-H1734; first compound 1 µM) of 0.851, a relative viability (NCI-H1355; first compound 0.01 µM) of 0.956 and a relative viability (NCI-H1355; first compound 0.03162 µM) of 0.981. For the same molecule, the relative viability (NCI-H1355; first compound 0.3162 µM) was 0.941, the relative viability (NCI-H1355; first compound 1 µM) was 0.891 and the relative viability (HCC-366; first compound 0.01 µM) was 1.11. The relative viability (HCC-366; first compound 0.03162 µM) was 1.1, the relative viability (HCC-366; first compound 0.1 µM) was 1.08 and the relative viability (HCC-366; first compound 0.3162 µM) was 1. It also gave a relative viability (HCC-366; first compound 1 µM) of 1.04, a relative viability (COR-L23; first compound 0.01 µM) of 1 and a relative viability (COR-L23; first compound 0.03162 µM) of 1.02. It also gave a relative viability (COR-L23; first compound 0.1 µM) of 0.976, a relative viability (COR-L23; first compound 0.3162 µM) of 1.05 and a relative viability (COR-L23; first compound 1 µM) of 0.98. The relative viability (NCI-H441; first compound 0.01 µM) was 0.53, the relative viability (NCI-H441; first compound 0.03162 µM) was 0.787 and the relative viability (NCI-H441; first compound 0.1 µM) was 1.59. The relative viability (NCI-H441; first compound 0.3162 µM) was 0.738 and the relative viability (NCI-H441; first compound 1 µM) was 0.585.
